The values below come from patent publication US4188378A, “Anticancer and antiviral activity of 9-β-D-arabinofuranosyl-2-fluoroadenine” (The United States of America as represented by the …, priority 1978, dated 1980).

The subject of series [1] is DNA polymerase. The experiment in a line: Inhibition of DNA polymerase by the triphosphate. The series is classed as biochemical. Conditions: triphosphate compared with Ara-ATP. The text has this:
(§1) Inhibition of DNA polymerase is considered to be responsible for the biologic activity of AraA. The levels of F-AraATP attainable in leukemia L1210 cells in mice from the administration of 2-F-AraA are much higher than the level of AraATP atainable in these cells after administration of AraA. As a result of the maintenance of these levels of the inhibitor, F-AraATP, in them, the leukemia cells are effectively destroyed in animals. […] 2-F-AraA was also active against leukemia L1210 when administered by the oral route.

The test system of series [2] is leukemias. Particulars: background statement; cited from earlier work.
The conditions of series [3]: background statement; cited from earlier work.
For series [4], the system named is adenosine deaminase. Conditions: cited from earlier work.
In series [5] the test system is Leukemia L1210. The experiment in a line: Therapeutic activity against leukemia L1210 implanted i.p. in mice. The series is classed as in vivo.
Description: as §1
^a 10^5 L1210 ascites cells implanted i.p. on day 0.
^b Treatments reported were selected from a range of dose levels from
lethally toxic to apparently nontoxic.
more than 16% (1/6 treated mice) dying without gross evidence of
progressive leukemia (splenomegaly), except those treated orally, in whic
^c i.p. = intraperitoneal; oral = drug administered directly into
^d % ILS = % increase in life span, compared to untreated control;
excluding 60day survivors.
^e Based on median day of death in dying animals only. Figures in
parentheses based on % survivors.
2-F-AraA was given i.p. or orally on the basis of average mouse body weight. Therapeutic activity based on observed increase in median life span of treated animals over untreated controls and on estimates of the number of viable L1210 cells present at the end of treatment is summarized in Table 2.

Take `Nc1nc(F)nc2c1ncn2[C@@H]1O[C@H](COP(=O)(O)OP(=O)(O)OP(=O)(O)O)[C@@H](O)[C@@H]1O` [F-AraATP]: in series [1], the “inhibition of DNA polymerase” value is given as “as potent an inhibitor of DNA polymerase as Ara-ATP”.

With `O=c1[nH]cnc2c1ncn2[C@@H]1O[C@H](CO)[C@@H](O)[C@@H]1O` [AraH, 9-β-D-arabinofuranosylhypoxanthine], the antileukemic activity entry in series [2] is on record as “no antileukemic activity”. Besides, in series [3], the antiviral activity result is given as “some antiviral”.

In the case of `Nc1ncnc2c1ncn2[C@@H]1O[C@H](CO)[C@@H](O)[C@@H]1O` [AraA, 9-β-D-arabinofuranosyladenine, reference compound], in series [4], the “deamination of AraA in vivo to AraH” value is “rapid deamination”. The antileukemic activity entry in series [2] is “little potential”. Moreover, the “activity against leukemia L1210” value in series [5] (AraA under similar conditions) is “essentially devoid of activity”. Besides, the “leukemia cells at the end of treatment” value in series [5] (AraA, 10^5 cells at the beginning) is reported as 3×10^8 cells. Moreover, the “therapeutic activity against L1210 leukemia” value in series [5] (in the absence of adenosine deaminase inhibitors) is “no significant therapeutic activity”. In addition, the antiviral activity result in series [3] is recorded as “potent antiviral agent”.
